The target of assay [1] is T1, human recombinant 5-HT2A receptor (Homo sapiens, UniProt P28223).
T1 construct: expressed in transfected cells; host or cells: Jump-In HEK cells (membrane preparation)
Put plainly: Test Example 1-2: 5-HT2A receptor binding inhibition test ([3H]-Ketanserin; non-specific ligand Ketanserin). In short, it runs like this:
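Membranes expressing the receptor were incubated with [3H]-ketanserin and compound for 1.5 h at 25 °C, then filtered onto plates presoaked in 50 mmol/L Tris-HCl pH 7.4 and scintillation-counted. Non-specific binding was defined with 500 µmol/L unlabeled ketanserin. Ki was taken from dose-response curves, with Kd set for each membrane lot by Scatchard analysis.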

The target of assay [2] is T2, human recombinant 5-HT2C receptor (Homo sapiens, UniProt P28335).
T2 construct: expressed in transfected cells; host or cells: Jump-In HEK cells (membrane preparation)
T2 sequence (P28335 33-458): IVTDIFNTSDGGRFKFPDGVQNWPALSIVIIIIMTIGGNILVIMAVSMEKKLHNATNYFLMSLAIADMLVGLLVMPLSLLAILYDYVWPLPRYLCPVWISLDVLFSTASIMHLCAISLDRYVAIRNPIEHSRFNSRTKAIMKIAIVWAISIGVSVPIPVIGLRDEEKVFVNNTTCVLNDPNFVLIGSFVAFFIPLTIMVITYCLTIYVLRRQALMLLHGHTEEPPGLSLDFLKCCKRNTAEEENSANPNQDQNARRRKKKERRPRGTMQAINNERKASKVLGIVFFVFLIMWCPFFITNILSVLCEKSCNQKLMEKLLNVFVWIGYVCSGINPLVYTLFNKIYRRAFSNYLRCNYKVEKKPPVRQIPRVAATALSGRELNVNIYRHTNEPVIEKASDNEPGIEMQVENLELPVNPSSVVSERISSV
Put plainly: Test Example 2-2: 5-HT2C receptor binding inhibition test ([3H]-Mesulergine; non-specific ligand Ketanserin). Particulars: non-specific binding with 500 µmol/L Ketanserin, 37°C, 2 hours. On the procedure: The Kd value is calculated when the lot of the cell membrane is changed. 1 mmol/L non-specific binding calculating compound dissolved in DMSO or DMSO is previously dispensed to the microplate by 0.5 µL, and the cell membrane is diluted with an Assay buffer. The radioactive ligand solution is diluted step by step, and counts are checked with a liquid scintillator. The Assay buffer containing diluted cell membranes is dispensed by 50 µL/well into the microplate. The radioactive ligand solution is then dispensed by 50 µL/well into the microplate and the plate is sealed. The microplate is allowed to stand at 37°C for 2 hours. During this time, 50 mmol/L Tris-HCl (pH 7.4) is dispensed by 50 µL/well into the UniFilter plate and allowed to stand at 4°C for 1 hour or longer. Thereafter, filtration is performed with a Cell Harvester (PerkinElmer). The radioactive ligand solution is dispensed by 10 µL/well into empty wells of the UniFilter plate. After drying the UniFilter plate at room temperature, MicroScinti20 is dispensed by 50 µL/well into the UniFilter plate, and the plate is sealed. UniFilter plate is allowed to stand at room temperature overnight. The radioactivity of [^3H]-Mesulergine bound to the 5-HT2C receptor is measured using Microbeta2 (PerkinElmer) at a measurement time of 1 min/well. The Saturation curve is drawn from the measured value, and the Kd value is calculated from the slope of the Scatchard Plot.
A compound solution dissolved in DMSO is dispensed to a microplate by 0.5 µL, and a cell membrane and a hot ligand are each diluted with an Assay buffer. The Assay buffer containing diluted cell membrane is then dispensed by 50 µL/well into the microplate. The radioactive ligand solution is then dispensed by 50 µL/well into the microplate and the plate is sealed. The microplate is then allowed to stand at 37°C for 2 hours. During this time, 50 mmol/L Tris-HCl (pH 7.4) is dispensed by 50 µL/well into the UniFilter plate and allowed to stand at 4°C for 1 hour or longer. Thereafter, filtration is performed with a Cell Harvester (PerkinElmer). After drying the UniFilter plate at room temperature, MicroScinti20 is dispensed by 50 µL/well into the UniFilter plate, and the plate is sealed. UniFilter plate is allowed to stand at room temperature overnight. The radioactivity of [^3H]-Mesulergine bound to the 5-HT2C receptor is measured using Microbeta2 (PerkinElmer) at a measurement time of 1 min/well. Non-specific binding is calculated from the radioactivity of [^3H]-Mesulergine in the presence of 500 µmol/L Ketanserin of unlabeled ligand, and total binding is calculated from the radioactivity of [^3H]-Mesulergine in the absence of the compound of the present invention (Vehicle). Finally, the Ki value is calculated from the dose-response curve.
(The binding activity of the compound according to the present invention is calculated from the following binding inhibition rate (%).) Inhibition rate (%) = [1−(c−a)/(b−a)] × 100 [formula] • a; average cpm of non-specific binding • b; average cpm of total binding • c; cpm in the presence of the test compound
The compounds of the present invention were tested essentially as described above.

Setting [3] is: [3H]-Ketanserin, non-specific binding with 500 µmol/L Ketanserin, room temperature (25°C), 1.5 hours, read-out: h 5-HT2A Ki.

Like-named read-outs stand apart in the source and are kept apart here.

T1 sequence (P28223 whole entry): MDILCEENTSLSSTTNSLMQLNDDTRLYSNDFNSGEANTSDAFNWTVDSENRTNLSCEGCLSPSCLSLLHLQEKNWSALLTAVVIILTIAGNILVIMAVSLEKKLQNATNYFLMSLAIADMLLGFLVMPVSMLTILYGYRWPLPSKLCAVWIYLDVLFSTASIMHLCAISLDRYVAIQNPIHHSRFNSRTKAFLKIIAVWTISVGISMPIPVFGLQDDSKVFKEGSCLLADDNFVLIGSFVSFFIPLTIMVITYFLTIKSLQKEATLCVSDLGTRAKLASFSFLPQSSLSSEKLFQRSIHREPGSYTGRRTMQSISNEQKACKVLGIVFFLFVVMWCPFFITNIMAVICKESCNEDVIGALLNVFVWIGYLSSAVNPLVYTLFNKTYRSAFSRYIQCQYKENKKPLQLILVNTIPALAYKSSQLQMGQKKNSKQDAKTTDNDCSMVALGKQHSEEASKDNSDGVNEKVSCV

Broadly, the Ki is a dissociation constant, usually derived from enzyme kinetics or from competition with a known ligand. As to `Cc1nnn(C)c1-c1cc(Nc2ncc(C(F)(F)F)cc2F)ccc1OCCO` [Compound I-033], the Ki in assay [1] (setting [3]) amounted to 376 pM; in assay [2], 3430 pM.
In the case of `Cc1cccc(C)c1-c1cc(Nc2ncc(C(F)(F)F)cc2F)ccc1OCCO` [Compound I-034], the results for the Ki in assay [1] (setting [3]) and in assay [2] were 770 pM and 3570 pM, respectively.
The corresponding values for `Cc1cnn(C)c1-c1cc(Nc2ncc(C(F)(F)F)cc2F)c(Oc2ccn(C)n2)cc1OCCO` [Compound I-035] are 2540 pM and 2350 pM.
For `Cn1ncc(Br)c1-c1cc(Nc2nc(C(F)(F)F)cs2)ccc1OCCO` [Compound I-036], the Ki in assay [1] (setting [3]) is 344 pM; in assay [2] it was 1920 pM.
Turning to `Cn1ncc(Br)c1-c1cc(Nc2ncc(C#N)s2)ccc1OCCO` [Compound I-037], the Ki in assay [1] (setting [3]) was 289 pM; in assay [2], 1400 pM.
The like results for `Cn1ncc(Br)c1-c1cc(Nc2ncc(C3CC3)s2)ccc1OCCO` [Compound I-038] were, in that order, 215 pM and 666 pM.
Turning to `Cn1ncc(Br)c1-c1cc(Nc2ncc(-c3ccccc3)s2)ccc1OCCO` [Compound I-039], the Ki in assay [1] (setting [3]) worked out at 319 pM; in assay [2], 245 pM.
The like results for `Cn1ncc(Br)c1-c1cc(Nc2ncc(Cl)s2)ccc1OCCO` [Compound I-040] were, in that order, 175 pM and 1160 pM.
The corresponding values for `Cn1ncc(Br)c1-c1cc(Nc2nc3ccccc3o2)ccc1OCCO` [Compound I-041] are 155 pM and 8830 pM.
`Cn1ncc(Br)c1-c1cc(Nc2nc3ccccc3n2C)ccc1OCCO` [Compound I-042]: the Ki turned out to be 194 pM in assay [1] (setting [3]) and 8350 pM in assay [2].
On to `Cn1ncc(Br)c1-c1cc(Nc2ncc(Br)cc2F)ccc1OCCO` [Compound I-043], for which the Ki in assay [1] (setting [3]) was 188 pM; in assay [2], 165 pM.
The like results for `Cn1ncc(Br)c1-c1cc(Nc2ncc(C#N)cc2F)ccc1OCCO` [Compound I-044] were, in that order, 626 pM and 15100 pM.
For `Cn1ncc(Br)c1-c1cc(Nc2ncccc2F)ccc1OCCO` [Compound I-045], the values for the Ki in assay [1] (setting [3]) and in assay [2] were 235 pM and 3770 pM, respectively.
The like results for `COC(=O)c1cnc(Nc2ccc(OCCO)c(-c3c(Br)cnn3C)c2)c(F)c1` [Compound I-046] were, in that order, 318 pM and 1330 pM.
The like results for `Cn1ncc(Br)c1-c1cc(Nc2cc(C(F)(F)F)ccn2)ccc1OCCO` [Compound I-047] were, in that order, 207 pM and 4260 pM.
As for `Cn1ncc(Br)c1-c1cc(Nc2ccc(C3CC3)cn2)ccc1OCCO` [Compound I-048], the Ki turned out to be 163 pM in assay [1] (setting [3]) and 313 pM in assay [2].
The like results for `Cc1cnc(Nc2ccc(OCCO)c(-c3c(Br)cnn3C)c2)c(F)c1` [Compound I-049] were, in that order, 168 pM and 641 pM.
The like results for `Cc1ncnc(C)c1-c1cc(Nc2ncc(C(F)(F)F)cc2F)ccc1OCCO` [Compound I-050] were, in that order, 395 pM and 1690 pM.
The like results for `Cn1ncc(C#N)c1-c1cc(Nc2ncc(Cl)cc2F)ccc1OCCO` [Compound I-051] were, in that order, 318 pM and 2600 pM.
With `Cn1ncc(C(F)(F)F)c1-c1cc(Nc2ncc(C(F)(F)F)cc2F)ccc1OCCO` [Compound I-052], the inhibitory constant (Ki) in assay [1] (setting [3]) was found to be 389 pM; in assay [2], 368 pM.
For the molecule `C=Cc1cnn(C)c1-c1cc(Nc2ncc(C(F)(F)F)cc2F)ccc1OCCO` [Compound I-053], the values for the Ki in assay [1] (setting [3]) and in assay [2] were 291 pM and 1250 pM, respectively.
The like results for `CCc1cnn(C)c1-c1cc(Nc2ncc(C(F)(F)F)cc2F)ccc1OCCO` [Compound I-055] were, in that order, 396 pM and 745 pM.
The like results for `Cc1ncnc(C)c1-c1cc(Nc2ncc(Cl)cc2F)ccc1OCCO` [Compound I-057] were, in that order, 386 pM and 5300 pM.
Take `Cn1nccc1-c1cc(Nc2ncc(C(F)(F)F)cc2F)ncc1OCCO` [Compound I-059]: the figures for the Ki in assay [1] (setting [3]) and in assay [2] were 450 pM and 30000 pM, respectively.
With `Cn1ncc(Br)c1-c1cc(Nc2ccc(OC(F)F)cn2)ccc1OCCO` [Compound I-060], the Ki was 158 pM in assay [1] (setting [3]) and 184 pM in assay [2].
The corresponding values for `Cn1ncc(Br)c1-c1cc(Nc2ccc(OC(F)(F)F)cc2)ccc1OCCO` [Compound I-061] are 254 pM and 1310 pM.
The like results for `CCn1ncc(Br)c1-c1cc(Nc2ncc(C(F)(F)F)cc2F)ccc1OCCO` [Compound I-066] were, in that order, 222 pM and 170 pM.
The corresponding values for `OCCOc1ccc(Nc2ncc(C(F)(F)F)cc2F)cc1-c1c(Br)cnn1C1CC1` [Compound I-067] are 403 pM and 196 pM.
For the molecule `CCn1ncc(C)c1-c1cc(Nc2ncc(C(F)(F)F)cc2F)ccc1OCCO` [Compound I-068], the Ki is 290 pM in assay [1] (setting [3]) and 1150 pM in assay [2].
The like results for `Cn1ncc(Br)c1-c1cc(Nc2nc3cc(Cl)ccc3s2)ccc1OCCO` [Compound I-069] were, in that order, 373 pM and 360 pM.
The like results for `Cn1ncc(Br)c1-c1cc(Nc2nc3ccc(F)cc3s2)ccc1OCCO` [Compound I-070] were, in that order, 302 pM and 213 pM.
For `Cn1ncc(Br)c1-c1cc(Nc2nc3c(Cl)cccc3s2)ccc1OCCO` [Compound I-071], the Ki was found to be 379 pM in assay [1] (setting [3]) and 1960 pM in assay [2].
The corresponding values for `Cn1ncc(C#N)c1-c1cc(Nc2ncc(C(F)(F)F)cc2F)ncc1OCCO` [Compound I-072] are 412 pM and 4640 pM.
In the case of `Cn1ncc(Br)c1-c1nc(Nc2ccc(C(F)(F)F)cn2)ccc1OCCO` [Compound I-073], the Ki in assay [1] worked out at 184 pM; in assay [2], 936 pM.
`Cc1cnn(C2CC2)c1-c1cc(Nc2ncc(C(F)(F)F)cc2F)ccc1OCCO` [Compound I-074]: the results for the Ki in assay [1] (setting [3]) and in assay [2] were 236 pM and 843 pM, respectively.
The corresponding values for `Cc1cnn(C)c1-c1cc(Nc2ccc(C(F)(F)F)cn2)ccc1OCCO` [Compound I-075] are 149 pM and 939 pM.
In the case of `Cn1ncc(Br)c1-c1cc(Nc2nc3cnccc3s2)ccc1OCCO` [Compound I-076], the Ki in assay [1] (setting [3]) is 211 pM; in assay [2], 3000 pM.
The like results for `Cn1ncc(Br)c1-c1cc(Nc2nc3cc(F)ccc3[nH]2)ccc1OCCO` [Compound I-077] were, in that order, 230 pM and 3250 pM.
The like results for `Cn1ncc(Br)c1-c1cc(Nc2nc3cc(Cl)ccc3[nH]2)ccc1OCCO` [Compound I-078] were, in that order, 263 pM and 1100 pM.
Take `COc1cnc(Nc2ccc(OCCO)c(-c3c(Br)cnn3C)c2)c(F)c1` [Compound I-079]: the figures for the Ki in assay [1] (setting [3]) and in assay [2] were 295 pM and 625 pM, respectively.
Regarding `Cn1ncc(Br)c1-c1cc(Nc2ccc(C(C)(F)F)cn2)ccc1OCCO` [Compound I-080], the Ki in assay [1] (setting [3]) came out at 445 pM; in assay [2] it was 2740 pM.
In the case of `Cn1ncc(Br)c1-c1cc(Nc2ccc(C(F)(F)F)cn2)cnc1OCCO` [Compound I-081], the values for the inhibition constant Ki in assay [1] (setting [3]) and in assay [2] were 202 pM and 457 pM, respectively.

For the origin of these results see patent publication EP4631938A1, “NITROGEN-CONTAINING HETEROCYCLE WITH SEROTONIN RECEPTOR-BINDING ACTIVITY AND CARBOCYCLIC DERIVATIVE” (Shionogi & Co., Ltd, priority 2022, dated 2024).
